According to patent US20250163066A1, “PROTACs of MALT1” (TEGID THERAPEUTICS, INC., priority 2022, published 2025):

Experiments:
[1] = tested on: IL-2 MALT1-dependent release in Jurkat cells; experiment: cells; format: cell-based; settings: Homo sapiens; for EC50: Jurkat cells stimulated with antiCD3/antiCD28 for 24 h, IL-2 ELISA, read-out: EC50, IL-2 MALT1-dependent release inhibition
Procedure: Jurkat cells (ATCC, USA) (100,000 cells/well in a 96 well flat-bottom plate (Greiner, #655061) were cultured in RPMI 1640 supplemented with 10% FBS at 37° C., 5% CO2 in a humidified cell culture incubator for 0.5-1 h. Then 10 μl/well 15× compound (or DMSO) was added in duplicates. Cells were incubated with compound in a humidified cell culture incubator for 0.5-1 h. After the incubation, 10 μl/well of 15× human antiCD3 HIT3a antibody (BioLegend) together with 10 μl/well of 15× human antiCD28 antibody (Invitrogen) were added to stimulate Jurkat cells for 24 h. After 24 h of stimulation, supernatants were collected and IL-2 levels in supernatants were assessed using IL-2 ELISA kit (Vector-Best, Russia).

MALT1 [2] = biological target: T1, MALT1 (Homo sapiens (Human), UniProt Q9UDY8); experiment: MALT1 degradation in JeKo-1 cells (capillary Western blotting); format: cell-based; settings: 48 h incubation, read-out: EC50 for MALT1 degradation
T1 sequence (Q9UDY8 whole entry): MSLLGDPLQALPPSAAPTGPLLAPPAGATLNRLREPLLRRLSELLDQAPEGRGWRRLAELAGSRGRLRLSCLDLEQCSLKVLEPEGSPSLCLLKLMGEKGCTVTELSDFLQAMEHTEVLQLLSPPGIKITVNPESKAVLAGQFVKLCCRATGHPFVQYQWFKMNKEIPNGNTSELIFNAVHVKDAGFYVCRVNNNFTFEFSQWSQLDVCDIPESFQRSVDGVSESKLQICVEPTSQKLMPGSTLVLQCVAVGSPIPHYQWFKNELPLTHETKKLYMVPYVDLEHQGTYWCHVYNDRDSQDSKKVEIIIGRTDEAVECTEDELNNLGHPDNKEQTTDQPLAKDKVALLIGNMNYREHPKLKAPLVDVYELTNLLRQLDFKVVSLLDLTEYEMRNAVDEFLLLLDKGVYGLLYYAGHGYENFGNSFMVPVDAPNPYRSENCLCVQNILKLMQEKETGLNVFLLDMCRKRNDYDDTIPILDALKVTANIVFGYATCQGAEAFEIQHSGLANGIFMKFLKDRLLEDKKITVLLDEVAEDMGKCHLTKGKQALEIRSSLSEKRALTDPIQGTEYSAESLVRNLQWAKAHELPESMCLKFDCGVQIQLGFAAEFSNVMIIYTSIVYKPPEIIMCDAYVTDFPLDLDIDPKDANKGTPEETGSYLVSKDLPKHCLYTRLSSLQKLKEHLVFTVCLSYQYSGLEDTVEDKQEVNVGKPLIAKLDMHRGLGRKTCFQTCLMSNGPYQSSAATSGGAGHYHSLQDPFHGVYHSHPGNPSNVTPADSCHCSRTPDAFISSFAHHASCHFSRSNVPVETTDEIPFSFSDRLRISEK
Procedure: JeKo-1 cells (ATCC, USA) were cultured in RPMI 1640 supplemented with 10% FBS at 37° C., 5% CO2 in a humidified cell culture incubator. 1 ml of cells (1*10^6 cells per well) was transferred to each well of a 24-well plate (Greiner, #662160). Then 40 μl/well 25× compound (or DMSO) were added. Cells were incubated with compound in a humidified cell culture incubator for 48 h. At the end of incubation, cell suspension was transferred from wells into 2 ml tubes (Greiner, #623201), centrifuged at 300 g for 5 min and the supernatant was discarded. Then cell pellets were washed with cooled PBS. Cell lysates were prepared by adding 40 μl of RIPA lysis buffer (ProteinSimple, #040-483) to the cell pellet. […] Next, protein concentration in cell lysates was determined by Pierce™ Coomassie (Bradford) Protein Assay Kit (Thermo Scientific, #23200) according to manufacturer's instructions.
Levels of MALT1, Bcl10 and CYLD proteins in prepared cell lysates were assessed in capillary Western blotting system Jess (JS-3030, ProteinSimple) using 12-230 kDa Separation Module (ProteinSimple #SM-W004), Anti-Mouse Detection Module (ProteinSimple #DM-002) and Anti-Rabbit Detection Module (ProteinSimple #DM-001) according to manufacturer's instructions. […] Beta-actin was used as a loading control detected by anti-beta-actin primary antibodies (RnD Systems, #MAB8929) at 1:100 dilution.

MALT1 [3] = biological target: T1, MALT1; experiment: MALT1 enzymatic activity inhibition (fluorescence, Ac-LRSR-AMC substrate); format: biochemical; settings: recombinant MALT1 1.5 ng/μl, Ac-LRSR-AMC 1 μM
Method in brief: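 Recombinant human MALT1 (1.5 ng/μl final) preincubated 10 min at rt with compounds in 50 mM HEPES pH 7.2-7.4, 100 mM NaCl, 900 mM sodium citrate, 10 mM DTT; 1 μM Ac-LRSR-AMC then added. AMC fluorescence read at start and after 30 min 37 °C plus 30 min rt; difference gives signal, % inhibition fitted to IC50.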

Structure (SMILES) | EC50 [1] [nM] | DC50 (MALT1 [2]) [nM] | EC50 (MALT1 [3]) [µM] | CC50 ([1]; Jurkat, 24 h, read-out: CC50 (IL-2 MALT1-dependent release inhibition)) [nM]
Cc1cc(NC(=O)Nc2cnc3ccnn3c2C2CCCO2)cnc1-c1noc(CCCCCC(=O)N2CCN(c3ccc4c(c3)CN(C3CCC(=O)NC3=O)C4=O)CC2)n1 (centres unmarked) [Compound 2, 1-[6-[5-[6-[4-[2-(2,6-dioxo-3-piperidyl)-1-oxo-isoindolin-5-yl]piperazin-1-yl]-6-oxo-hexyl]-1,2,4-oxadiazol-3-yl]-5-methyl-3-pyridyl]-3-(7-tetrahydrofuran-2-ylpyrazolo[1,5-a]pyrimidin-6-yl)urea] | 500 to 1000 | 85 | ≤ 0.2 | 
Cc1cc(NC(=O)Nc2cnc3ccnn3c2C(C)C)cnc1-c1noc(CCCCCN2CCN(c3ccc4c(c3)CN(C3CCC(=O)NC3=O)C4=O)CC2)n1 (centres unmarked) [Compound 87, 1-[6-[5-[5-[4-[2-(2,6-dioxo-3-piperidyl)-1-oxo-isoindolin-5-yl]piperazin-1-yl]pentyl]-1,2,4-oxadiazol-3-yl]-5-methyl-3-pyridyl]-3-(7-isopropylpyrazolo[1,5-a]pyrimidin-6-yl)urea] | < 500 |  | ≤ 0.2 | 
Cc1cc(NC(=O)Nc2cnc3ccnn3c2C2CCCC2)cnc1-c1noc(CCCCCN2CCN(c3ccc4c(c3)CN(C3CCC(=O)N(COC(=O)C(C)(C)C)C3=O)C4=O)CC2)n1 (centres unmarked) [Compound 88, [3-[5-[4-[5-[3-[5-[(7-cyclopentylpyrazolo[1,5-a]pyrimidin-6-yl)carbamoylamino]-3-methyl-2-pyridyl]-1,2,4-oxadiazol-5-yl]pentyl]piperazin-1-yl]-1-oxo-isoindolin-2-yl]-2,6-dioxo-1-piperidyl]methyl 2,2-dimethylpropanoate] | 1000 to 5000 |  | ≤ 0.2 | 
Cc1cc(NC(=O)Nc2cnc3ccnn3c2C(C)C)cnc1-c1noc(CCCCCCN2CCN(c3ccc4c(c3)CN(C3CCC(=O)NC3=O)C4=O)CC2)n1 (centres unmarked) [Compound 92, 1-[6-[5-[6-[4-[2-(2,6-dioxo-3-piperidyl)-1-oxo-isoindolin-5-yl]piperazin-1-yl]hexyl]-1,2,4-oxadiazol-3-yl]-5-methyl-3-pyridyl]-3-(7-isopropylpyrazolo[1,5-a]pyrimidin-6-yl)urea] | < 500 |  | ≤ 0.2 | 
Cc1cc2ncc(NC(=O)Nc3cnc(-c4noc(CCCCC(=O)N5CCN(c6ccc7c(c6)CN(C6CCC(=O)NC6=O)C7=O)CC5)n4)c(C)c3)c(C3CCCO3)n2n1 (centres unmarked) [Compound 84, 1-[6-[5-[5-[4-[2-(2,6-dioxo-3-piperidyl)-1-oxo-isoindolin-5-yl]piperazin-1-yl]-5-oxo-pentyl]-1,2,4-oxadiazol-3-yl]-5-methyl-3-pyridyl]-3-(2-methyl-7-tetrahydrofuran-2-yl-pyrazolo[1,5-a]pyrimidin-6-yl)urea] | 1000 to 5000 |  | ≤ 0.2 | 
O=C1CCC(N2Cc3cc(N4CCN(C(=O)CCCCCc5nc(-c6ncc(NC(=O)Nc7cnc8ccnn8c7C7CCCC7)cc6Cl)no5)CC4)ccc3C2=O)C(=O)N1 (centres unmarked) [Compound 3, 1-[5-chloro-6-[5-[6-[4-[2-(2,6-dioxo-3-piperidyl)-1-oxo-isoindolin-5-yl]piperazin-1-yl]-6-oxo-hexyl]-1,2,4-oxadiazol-3-yl]-3-pyridyl]-3-(7-cyclopentylpyrazolo[1,5-a]pyrimidin-6-yl)urea] | < 500 |  | ≤ 0.2 | 
O=C1CCC(N2Cc3cc(N4CCN(Cc5nc(-c6ncc(NC(=O)Nc7cnc8ccnn8c7C7CCCC7)cc6Cl)no5)CC4)ccc3C2=O)C(=O)N1 (centres unmarked) [Compound 56, 1-[5-chloro-6-[5-[[4-[2-(2,6-dioxo-3-piperidyl)-1-oxo-isoindolin-5-yl]piperazin-1-yl]methyl]-1,2,4-oxadiazol-3-yl]-3-pyridyl]-3-(7-cyclopentylpyrazolo[1,5-a]pyrimidin-6-yl)urea] | < 500 |  | ≤ 0.2 | 
O=C1CCC(N2Cc3cc(N4CCN(C(=O)CCCc5nc(-c6ncc(NC(=O)Nc7cnc8ccnn8c7C7CCCC7)cc6C(F)(F)F)no5)CC4)ccc3C2=O)C(=O)N1 (centres unmarked) [Compound 106, 1-(7-cyclopentylpyrazolo[1,5-a]pyrimidin-6-yl)-3-[6-[5-[4-[4-[2-(2,6-dioxo-3-piperidyl)-1-oxo-isoindolin-5-yl]piperazin-1-yl]-4-oxo-butyl]-1,2,4-oxadiazol-3-yl]-5-(trifluoromethyl)-3-pyridyl]urea] | < 500 |  | ≤ 0.2 | 
O=C1CCC(N2Cc3cc(N4CCN(C(=O)CCCCCc5nc(-c6ncc(NC(=O)Nc7cnc8ccnn8c7C7CCCC7)cc6C(F)(F)F)no5)CC4)ccc3C2=O)C(=O)N1 (centres unmarked) [Compound 104, 1-(7-cyclopentylpyrazolo[1,5-a]pyrimidin-6-yl)-3-[6-[5-[6-[4-[2-(2,6-dioxo-3-piperidyl)-1-oxo-isoindolin-5-yl]piperazin-1-yl]-6-oxo-hexyl]-1,2,4-oxadiazol-3-yl]-5-(trifluoromethyl)-3-pyridyl]urea] | < 500 |  | ≤ 0.2 | 
O=C1CCC(N2Cc3cc(N4CCN(C(=O)CCCCc5nc(-c6ncc(NC(=O)Nc7cnc8ccnn8c7C7CCCC7)cc6Cl)no5)CC4)ccc3C2=O)C(=O)N1 (centres unmarked) [Compound 76, 1-[5-chloro-6-[5-[5-[4-[2-(2,6-dioxo-3-piperidyl)-1-oxo-isoindolin-5-yl]piperazin-1-yl]-5-oxo-pentyl]-1,2,4-oxadiazol-3-yl]-3-pyridyl]-3-(7-cyclopentylpyrazolo[1,5-a]pyrimidin-6-yl)urea] | 500 to 1000 |  | ≤ 0.2 | 
Cc1cc(NC(=O)Nc2cnc3ccnn3c2C2CCCCC2)cnc1-c1noc(CCCCCCN2CCN(c3ccc4c(c3)CN(C3CCC(=O)NC3=O)C4=O)CC2)n1 (centres unmarked) [Compound 122, 1-(7-cyclohexylpyrazolo[1,5-a]pyrimidin-6-yl)-3-[6-[5-[6-[4-[2-(2,6-dioxo-3-piperidyl)-1-oxo-isoindolin-5-yl]piperazin-1-yl]hexyl]-1,2,4-oxadiazol-3-yl]-5-methyl-3-pyridyl]urea] |  |  | ≤ 0.2 | < 500
